# Assay results published in ChEMBL document CHEMBL2413059, “Novel quinoxaline 1,4-di-N-oxide derivatives as new potential antichagasic agents” (Eur J Med Chem, 2013).
# Assays:
# [1] = Selectivity index, ratio of IC50 for mouse J774 cells to IC50 for epimastigote form of Trypanosoma cruzi Tulahuen 2; assay type: toxicity, cell-based; settings: read-out: Ratio IC50
# Trypanosoma cruzi [2] = experiment: Antichagasic activity against epimastigote form of Trypanosoma cruzi Tulahuen 2 assessed as parasite growth inhibition measured on day 5; assay type: functional, organism-based; settings: Tulahuen 2, 120 h
# Trypanosoma cruzi [3] = experiment: Antichagasic activity against epimastigote form of Trypanosoma cruzi Tulahuen 2 assessed as parasite growth inhibition at 25 uM measured on day 5 relative to control; assay type: functional; settings: Tulahuen 2, 120 h, read-out: GI
# Salmonella typhimurium [4] = experiment: Mutagenicity in Salmonella typhimurium TA98 at 0.06 to 12.5 ug/plate after 1 hr by Ames test in absence of S9 fraction; assay type: toxicity, organism-based; settings: salmonella enterica subsp. enterica serovar typhimurium
# J774 = experiment: Cytotoxicity against mouse J774 cells assessed as cell viability after 48 hrs by MTT assay; assay type: cell-based; settings: J774, 48 h
# Salmonella typhimurium [5] = experiment: Mutagenicity in Salmonella typhimurium TA98 at 0.06 to 12.5 ug/plate after 1 hr by Ames test in presence of S9 fraction; assay type: toxicity, organism-based; settings: salmonella enterica subsp. enterica serovar typhimurium, s9, 1 h
# Salmonella typhimurium [6] = experiment: Mutagenicity in Salmonella typhimurium TA98 at 0.61 to 50 ug/plate after 1 hr by Ames test in absence of S9 fraction; assay type: toxicity, organism-based; settings: salmonella enterica subsp. enterica serovar typhimurium
# Salmonella typhimurium [7] = experiment: Mutagenicity in Salmonella typhimurium TA98 at 0.61 to 50 ug/plate after 1 hr by Ames test in presence of S9 fraction; assay type: toxicity, organism-based; settings: salmonella enterica subsp. enterica serovar typhimurium, s9, 1 h
# Salmonella typhimurium [8] = experiment: Mutagenicity in Salmonella typhimurium TA98 at 0.06 to 5 ug/plate after 1 hr by Ames test in presence of S9 fraction; assay type: toxicity, organism-based; settings: salmonella enterica subsp. enterica serovar typhimurium, s9, 1 h
# Salmonella typhimurium [9] = experiment: Mutagenicity in Salmonella typhimurium TA98 at 0.06 to 5 ug/plate after 1 hr by Ames test in absence of S9 fraction; assay type: toxicity, organism-based; settings: salmonella enterica subsp. enterica serovar typhimurium
# Salmonella typhimurium [10] = experiment: Mutagenicity in Salmonella typhimurium TA98 at 0.3 to 25 ug/plate after 1 hr by Ames test in absence of S9 fraction; assay type: toxicity, organism-based; settings: salmonella enterica subsp. enterica serovar typhimurium
# Salmonella typhimurium [11] = experiment: Mutagenicity in Salmonella typhimurium TA98 at 0.3 to 25 ug/plate after 1 hr by Ames test in presence of S9 fraction; assay type: toxicity, organism-based; settings: salmonella enterica subsp. enterica serovar typhimurium, s9, 1 h
# Salmonella typhimurium [12] = experiment: Mutagenicity in Salmonella typhimurium TA98 at 0.012 to 1 ug/plate after 1 hr by Ames test in presence of S9 fraction; assay type: toxicity, organism-based; settings: salmonella enterica subsp. enterica serovar typhimurium, s9, 1 h
# Salmonella typhimurium [13] = experiment: Mutagenicity in Salmonella typhimurium TA98 at 0.012 to 1 ug/plate after 1 hr by Ames test in absence of S9 fraction; assay type: toxicity, organism-based; settings: salmonella enterica subsp. enterica serovar typhimurium
# Trypanosoma cruzi [14] = experiment: Ratio of nifurtimox IC50 to compound IC50 for epimastigote form of Trypanosoma cruzi Tulahuen 2; assay type: functional
# Salmonella typhimurium [15] = experiment: Mutagenicity in Salmonella typhimurium TA98 at 1.2 X 10^-3 to 5 ug/plate after 1 hr by Ames test in presence of S9 fraction; assay type: toxicity, organism-based; settings: salmonella enterica subsp. enterica serovar typhimurium, s9, 1 h
# Salmonella typhimurium [16] = experiment: Mutagenicity in Salmonella typhimurium TA98 at 1.2 X 10^-3 to 5 ug/plate after 1 hr by Ames test in absence of S9 fraction; assay type: toxicity, organism-based; settings: salmonella enterica subsp. enterica serovar typhimurium
IC50 (Trypanosoma cruzi [2]) [µM],Structure (SMILES),selectivity ratio [1],inhibition of growth at 25 µM (Trypanosoma cruzi [3]) [%],IC50 (J774) [µM],Activity (Salmonella typhimurium [8]),Activity (Salmonella typhimurium [9]),also measured
7.6,CCOC(=O)c1c(C(F)(F)F)[n+]([O-])c2cc(C)c(C)cc2[n+]1[O-],0.5,87.5,4,,,Activity (Salmonella typhimurium [4]): Toxic; Activity (Salmonella typhimurium [5]): Non-toxic
5,COC(=O)c1c(C(F)(F)F)[n+]([O-])c2cc(C)c(C)cc2[n+]1[O-],0.8,91.6,4,,,Activity (Salmonella typhimurium [6]): Toxic; Activity (Salmonella typhimurium [7]): Toxic
,CC1CS(=O)(=O)CCN1/N=C/c1ccc([N+](=O)[O-])o1 (configuration not stated) [NIFURTIMOX],41,100,316,,,
1.5,COC(=O)c1c(C(F)(F)F)[n+]([O-])c2cc(F)c(F)cc2[n+]1[O-],,100,,Non-toxic,Toxic,
4.8,CCOC(=O)c1c(C(F)(F)F)[n+]([O-])c2ccc(OC)cc2[n+]1[O-],1.2,100,6,,,Activity (Salmonella typhimurium [10]): Toxic; Activity (Salmonella typhimurium [11]): Toxic
1,CCOC(=O)c1c(C(F)(F)F)[n+]([O-])c2ccc(C(F)(F)F)cc2[n+]1[O-],4.2,100,4.2,,,Activity (Salmonella typhimurium [4]): Non-toxic; Activity (Salmonella typhimurium [5]): Non-toxic
10.8,COC(=O)c1c(C(F)(F)F)[n+]([O-])c2cc(Cl)c(Cl)cc2[n+]1[O-],< 0.1,100,0.5,,,Activity (Salmonella typhimurium [12]): Non-toxic; Activity (Salmonella typhimurium [13]): Non-toxic
3.3,CCOC(=O)c1c(C(F)(F)F)[n+]([O-])c2ccc(F)cc2[n+]1[O-],0.1,100,0.5,Non-toxic,Toxic,
4.6,COC(=O)c1c(C(F)(F)F)[n+]([O-])c2ccc(OC)cc2[n+]1[O-],,86.6,,,,Activity (Salmonella typhimurium [10]): Toxic; Activity (Salmonella typhimurium [11]): Toxic
13.7,COC(=O)c1c(C(F)(F)F)[n+]([O-])c2ccc(C)cc2[n+]1[O-],0.3,96.1,4,Toxic,Toxic,
0.4,CCOC(=O)c1c(C(F)(F)F)[n+]([O-])c2cc(F)c(F)cc2[n+]1[O-],10,100,4,Non-toxic,Toxic,Ratio IC50 (Trypanosoma cruzi [14]): 18
4.8,CCOC(=O)c1c(C(F)(F)F)[n+]([O-])c2ccc(C)cc2[n+]1[O-],1.4,100,7,,,Activity (Salmonella typhimurium [10]): Toxic; Activity (Salmonella typhimurium [11]): Non-toxic
2.9,CCOC(=O)c1c(C(F)(F)F)[n+]([O-])c2cc(Cl)c(Cl)cc2[n+]1[O-],,100,,Non-toxic,Non-toxic,
3.5,COC(=O)c1c(C(F)(F)F)[n+]([O-])c2ccc(F)cc2[n+]1[O-],0.7,100,2.5,,,Activity (Salmonella typhimurium [10]): Toxic; Activity (Salmonella typhimurium [11]): Non-toxic
1.8,CCOC(=O)c1c(C(F)(F)F)[n+]([O-])c2ccc(Cl)cc2[n+]1[O-],,100,,Non-toxic,Toxic,
2.6,COC(=O)c1c(C(F)(F)F)[n+]([O-])c2ccccc2[n+]1[O-],7.3,100,19,Toxic,Toxic,
4,CCOC(=O)c1c(C(F)(F)F)[n+]([O-])c2ccccc2[n+]1[O-],1,100,4,Non-toxic,Toxic,
1.8,COC(=O)c1c(C(F)(F)F)[n+]([O-])c2ccc(Cl)cc2[n+]1[O-],,100,,,,Activity (Salmonella typhimurium [15]): Non-toxic; Activity (Salmonella typhimurium [16]): Toxic
5,COC(=O)c1c(C(F)(F)F)[n+]([O-])c2ccc(C(F)(F)F)cc2[n+]1[O-],0.8,100,4,Non-toxic,Non-toxic,
